Legend:
human PDE5 = molecular target: T1, human PDE5 (Homo sapiens, UniProt O76074); test: Inhibition of PDE5 activity (modified SPA test, human platelet lysate); type: biochemical; conditions: PDE5-containing human platelet lysate, 0.5 μM cGMP substrate, 37° C.
T1 construct: from tissue; host or cells: human platelets from fresh donor blood (10,000 g supernatant of sonified platelets)
Description: As a source for human PDE5, platelets were used. For that purpose, 150 ml fresh blood from human donors anticoagulated with citrate [final concentration 0.3% (w/v)] was centrifuged at 200 g for 10 min to obtain the so-called platelet-rich-plasma (PRP) as a supernatant. 1/10 volume of ACD solution (85 mM Na3-citrate, 111 mM D-glucose, 71 mM citric acid, pH 4.4) was added to 9/10 volume of PRP. After centrifugation (1,400 g, 10 min) the cell pellet was resuspended in 3 ml homogenization buffer (NaCl 140 mM, KCl 3.8 mM, EGTA 1 mM, MgCl2 1 mM, Tris-HCl 20 mM, beta-mercaptoethanol 1 mM, pH 8.2) plus protease-inhibitor mix giving rise to the final concentrations of 0.5 mM Pefablock (Roche), 10 μM Leupeptin, 5 μM Trypsininhibitor, 2 mM Benzamidin and 10 μM Pepstatin A. The suspension was sonified and thereafter centrifuged for 15 min at 10,000 g. The resulting supernatant (platelet lysate) was used for enzymatic testings.
PDE5A1 activity is inhibited by the compounds of the invention in a modified SPA (scintillation proximity assay) test, supplied by Amersham Biosciences (see procedural instructions “phosphodiesterase [3H]cAMP SPA enzyme assay, code TRKQ 7090”), carried out in 96-well microtitre plates (MTP's). The test volume is 100 μl and contains 20 mM Tris buffer (pH 7.4), 0.1 mg of BSA (bovine serum albumin)/ml, 5 mM Mg^2+, 1 μM motapizone, 10 nM PDE2 inhibitor BAY-60-7550, 0.5 μM cGMP (including about 50,000 cpm of [3H]cGMP as a tracer), 1 μl of the respective compound dilution in dimethylsulfoxide (DMSO) and sufficient PDE5-containing platelet lysat (10,000×g supernatant, see above) to ensure that 10-20 wt % of the cGMP is converted under the said experimental conditions. […] After a preincubation of 5 min at 37° C., the reaction was started by adding the substrate (cGMP) and the assay was incubated for a further 15 min; after that, it was stopped by adding SPA beads (50 μl). In accordance with the manufacturer's instructions, the SPA beads had previously been resuspended in water, but were then diluted 1:3 (v/v) in water; the diluted solution also contains 3 mM 8-methoxymethyl-3-isobutyl-1-methylxanthine (IBMX) to ensure a complete PDE activity stop. After the beads have been sedimented (>30 min), the MTP's are analyzed in commercially available luminescence detection devices. The corresponding IC50 values of the compounds for the inhibition of PDE activity are determined from the concentration-effect curves by means of non-linear regression.

Structure (SMILES) | melting point | IC50 (human PDE5)
COc1ccc(Cc2nc3c(c4c2[nH]c2ccccc24)C(=O)CC(C)(C)C3)cc1Cl [Example 15, 6-(3-Chloro-4-methoxy-benzyl)-3,3-dimethyl-2,3,4,7-tetrahydro-indolo[2,3-c]quinolin-1-one] | 209 to 211 °C | 6.31 nM
O=C1CCCc2nc(Cc3ccc4c(c3)OCO4)c3[nH]c4ccccc4c3c21 [Example 18, 6-Benzo[1,3]dioxol-5-ylmethyl-2,3,4,7-tetrahydro-indolo[2,3-c]quinolin-1-one] | 194 to 197 °C | 3.63 nM
CC1(C)CC(=O)c2c(nc(Cc3cccc(Br)c3)c3[nH]c4ccccc4c23)C1 [Example 21, 6-(3-Bromo-benzyl)-3,3-dimethyl-2,3,4,7-tetrahydro-indolo[2,3-c]quinolin-1-one] | 215 to 219 °C | 126 nM
CC1(C)CC(=O)c2c(nc(Cc3cc(F)cc(F)c3)c3[nH]c4ccccc4c23)C1 [Example 22, 6-(3,5-Difluoro-benzyl)-3,3-dimethyl-2,3,4,7-tetrahydro-indolo[2,3-c]quinolin-1-one] | 204 to 208 °C | 15.5 nM
COc1ccc(Cc2nc3c(c4c2[nH]c2ccccc24)C(=O)CC(C)(C)C3)cc1F [Example 23, 6-(3-Fluoro-4-methoxy-benzyl)-3,3-dimethyl-2,3,4,7-tetrahydro-indolo[2,3-c]quinolin-1-one] | 192 to 195 °C | 1.26 nM
CC1(C)CC(=O)c2c(nc(Cc3ccc(F)c(F)c3)c3[nH]c4ccccc4c23)C1 [Example 24, 6-(3,4-Difluoro-benzyl)-3,3-dimethyl-2,3,4,7-tetrahydro-indolo[2,3-c]quinolin-1-one] | 204 to 207 °C | 14.1 nM
O=C1CCCc2nc(Cc3ccc([N+](=O)[O-])cc3)c3[nH]c4ccccc4c3c21 [Example 26, 6-(4-Nitro-benzyl)-2,3,4,7-tetrahydro-indolo[2,3-c]quinolin-1-one] | 138 to 140 °C | 355 nM

Next, values leading:

melting point | IC50 (human PDE5) | Structure (SMILES)
186 °C | 3.39 nM | COc1ccc(Cc2nc3c(c4c2[nH]c2ccccc24)CCC(C)C3)cc1 (stereo not shown) [Example 4, 6-(4-Methoxy-benzyl)-3-methyl-2,3,4,7-tetrahydro-1H-indolo[2,3-c]quinoline]
141 to 143 °C | 135 nM | CC1(C)CC(=O)c2c(nc(Cc3ccc(OC(F)(F)F)cc3)c3[nH]c4ccccc4c23)C1 [Example 11, 3,3-Dimethyl-6-(4-trifluoromethoxy-benzyl)-2,3,4,7-tetrahydro-indolo[2,3-c]quinolin-1-one]
179 to 181 °C | 26.9 nM | CCOc1ccc(Cc2nc3c(c4c2[nH]c2ccccc24)C(=O)CC(C)(C)C3)cc1 [Example 12, 6-(4-Ethoxy-benzyl)-3,3-dimethyl-2,3,4,7-tetrahydro-indolo[2,3-c]quinolin-1-one]
153 to 155 °C | 347 nM | CC(C)c1ccc(Cc2nc3c(c4c2[nH]c2ccccc24)C(=O)CC(C)(C)C3)cc1 [Example 14, 6-(4-Isopropyl-benzyl)-3,3-dimethyl-2,3,4,7-tetrahydro-indolo[2,3-c]quinolin-1-one]
102 °C | 3.16 nM | COc1ccc(Cc2nc3c(c4c2[nH]c2ccccc24)C(=O)CC(C)C3)cc1 (stereo not shown) [Example 17, 6-(4-Methoxy-benzyl)-3-methyl-2,3,4,7-tetrahydro-indolo[2,3-c]quinolin-1-one]
205 to 207 °C | 10.2 nM | CC1(C)CC(=O)c2c(nc(Cc3ccc(Cl)cc3)c3[nH]c4ccccc4c23)C1 [Example 20, 6-(4-Chloro-benzyl)-3,3-dimethyl-2,3,4,7-tetrahydro-indolo[2,3-c]quinolin-1-one]
182 to 184 °C | 2.95 nM | Cc1ccc(Cc2nc3c(c4c2[nH]c2ccccc24)C(=O)CC(C)(C)C3)cc1 [Example 25, 3,3-Dimethyl-6-(4-methyl-benzyl)-2,3,4,7-tetrahydro-indolo[2,3-c]quinolin-1-one]

Reference: patent publication US20100120730A1, “6-BENZYL-2,3,4,7-TETRAHYDRO-INDOLO [2,3-C] QUINOLINE COMPOUNDS USEFUL AS PDE5 INHIBITORS” (NYCOMED GmbH, priority 2007, published 2010)
